According to patent publication US4945097A, “Aryl-cycloalkyl-alkanolamines for treatment of neurotoxic injury” (priority 1987, dated 1990):

Columns and labels:
[1] = system: NMA neurotoxicity in 15-day old chick embryo retina; assay: NMDA/KA Antagonist Assay: prevention of NMA neurotoxicity in chick embryo retina; assay type: cell-based; settings: Gallus gallus, 0.5 h; NMA 200 μM, retina incubated 30 min at 37° C in BSS, complete protection in all specimens (n>6); read-out: antagonist potency vs NMA: concentration required to totally prevent a neurotoxic reaction
Method: Two agonists were employed in the present test, each at a concentration established previously to be the lowest concentration required to consistently cause a fully-developed retinal lesion: KA (25 μM) and NMA (200 μM). […] Internal controls in each experiment consisted of at least six specimens being incubated with agonist alone. […] The method of tissue preparation was as follows: 15-day old chick embryos were decapitated and their eyes removed and cut into quadrants after excising the cornea and removing the lens, vitreous and iris. The retinal quadrants were then gently separated from the pigment epithelium and incubated for 30 min. at 37° C. in BSS to which an agonist or agonist plus antagonist was added. The BSS contained 140 mM Na^+, 5.0 mM K^+, 0.5 mM Ca^++, 4 5 mM mG^++, 150 mM Cl^-, 5.6 mM glucose and bicarbonate/phosphate buffer (pH 7.3). After incubation for 30 min., the retinal quadrants were fixed by immersion in phosphate-buffered solution containing 1.5% glutaraldehyde and 1% paraformaldehyde, then additionally fixed in 1% osmium tetroxide, dehydrated in graded ethanols, cleared in toluene and embedded in araldite. Sections were cut 1 micron thick on a Sorval ultratome and stained with Methylene blue/Azure 11 for histopathological evaluation by light microscopy.

[2] = system: KA neurotoxicity in 15-day old chick embryo retina; assay: NMDA/KA Antagonist Assay: prevention of KA neurotoxicity in chick embryo retina; assay type: cell-based; set-up: key: --: A dash signifies no antagonist action; settings: KA 25 μM, retina incubated 30 min at 37° C in BSS
Method: A 15-day old chick embryo retina, incubated for 30 min. in a balanced sat solution (BSS) containing 1 mM Glu, developed a full lesion resembling that described in the immature mouse retina following s.c. administration of Glu. Other excitotoxin agonists also produce acute lesions within 30 min., each agent being effective at a concentration proportional to its known excitatory and toxic potencies. The pattern of cellular degeneration is restricted in each case to the ganglion cell, inner plexiform and inner nuclear layers, but within these areas certain agonists induce different patterns of degeneration, the differences being most pronounced between NMA and KA. Two agonists were employed in the present test, each at a concentration established previously to be the lowest concentration required to consistently cause a fully-developed retinal lesion: KA (25 μM) and NMA (200 μM). Procyclidine, biperiden and trihexyphenidyl were tested at various concentrations for their ability to prevent KA or NMA neurotoxicity. […] Internal controls in each experiment consisted of at least six specimens being incubated with agonist alone. A typical toxic reaction had to be present in all controls and absent from all experimental specimens in order to qualify as a blocking effect. The method of tissue preparation was as follows: 15-day old chick embryos were decapitated and their eyes removed and cut into quadrants after excising the cornea and removing the lens, vitreous and iris. The retinal quadrants were then gently separated from the pigment epithelium and incubated for 30 min. at 37° C. in BSS to which an agonist or agonist plus antagonist was added. The BSS contained 140 mM Na^+, 5.0 mM K^+, 0.5 mM Ca^++, […], 150 mM Cl^-, 5.6 mM glucose and bicarbonate/phosphate buffer (pH 7.3). After incubation for 30 min., the retinal quadrants were fixed by immersion in phosphate-buffered solution containing 1.5% glutaraldehyde and 1% paraformaldehyde, then additionally fixed in 1% osmium tetroxide, dehydrated in graded ethanols, cleared in toluene and embedded in araldite. […]

[3] = system: H/I neuronal degeneration in Sprague Dawley rats, 10 days old; assay type: in vivo
Method: A total of 30 Sprague Dawley rats, 10 days old, were used in this assay. Ten pups (5 control and 5 experimental) were studied on each of 3 separate days, the protocol being the same each day. A unilateral carotid ligation was performed under halothane anesthesia, and the incision was closed with super glue. After recovery from anesthesia, the experimental pups were given a subcutaneous injection of procyclidine (50 mg/kg in 0.1 ml aqueous solution, pH 7.4) and controls an equal volume sc injection of normal saline. Immediately thereafter, all 10 of the pups (half control and half experimental) were placed together in a large sealed transparent chamber and a partial vacuum was gradually created (pressure reduced from 760 to 200 mm Hg over a 1 minute period). A water bath surrounding the bottom half of the chamber kept the temperature inside at 38° C. After 75 minutes the pressure was returned gradually to 760 mm Hg over a 1 minute interval and, after a 2 hour observation period, the pups were anesthetized, the neck incision opened and the ligature removed from the carotid (a piece of tubing had originally been placed between the suture and vessel wall to facilitate subsequent removal of the suture without damage to the vessel wall). While still under anesthesia, the pups were sacrificed by perfusion fixation with aldehyde fixatives. Since the ligature had been removed from the occluded carotid, perfusate was able to distribute equally to the two hemispheres. After 15 minutes of perfusion, the brains were removed and sliced in 1 mm thick transverse slabs which were post fixed in osmium tetroxide, dehydrated in graded ethanols, cleared in toluene and embedded flat in araldite [J. W. Olney, "Glutamate-Induced Neuronal Necrosis In The Infant Mouse Hypothalamus: An Electron Microscopic Study", Neuropthol. Exp. Neurol., 30, 75-90 (1971)]. Sections (1 micron thick) were cut at 40 micron intervals and stained with azure II/methylene blue to permit a systematic microscopic evaluation of all regions of interest in each brain. In a large number of control infant rats (n>100) subjected to the above hypobaric/ischemic conditions, there has been shown a 90% survival rate (10% die in the hypobaric chamber) and a 94% incidence of brain damage which is always confined unilaterally to the side of the carotid ligation [J. M. Olney, "Hypoxia-Ischemia Causes Glutamate-Like Neuropathological changes in Infant Rat Brain", Neurosci Abst., 13, 1553 (1987)]. […] The damage in control rats consists of unilateral disseminated acute neuronal degeneration in some or all of the following regions: medial habenulum, dentate hippocampal gyrus, caudate nucleus, olfactory tubercle, islands of calleja, fronto-parietal neocortex and several thalamic nuclei. Two of 15 control and 2 of 15 experimental infants died in the hypobaric chamber. […] Among the 13 surviving procyclidine-treated pups, 10 had no damage in any of the above brain regions, 3 had small attenuated lesions, limited in two pups to the medial habenulum and in one to the caudate. […] Signs such as ataxia, head and body weaving, prostration and respiratory depression, which are sometimes seen in animals treated with antiexcitotoxic drugs, were not observed.

Structure (SMILES)	EC100 [1] [µM]	antagonist potency vs KA: concentration required to totally prevent a neurotoxic reaction [2]	treated animals with total protection against H/I neuronal degeneration ([3]; 50 mg/kg sc) [%]	number of surviving treated pups with no damage in any of the brain regions ([3]; 50 mg/kg sc, 13 surviving treated pups, carotid ligation plus 75 min hypobaric)	number of surviving treated pups with small attenuated lesions ([3]; 50 mg/kg sc, 13 surviving treated pups, two limited to medial habenulum, one to caudate)	treated animals with markedly reduced severity of neuropathology ([3]; 50 mg/kg sc, the remaining animals) [%]	side effects of the single dose ([3]; rat, in vivo)
OC(CCN1CCCCC1)(c1ccccc1)C1CC2C=CC1C2 (stereo not drawn) [Biperiden, α-bicyclo[2.2.1]hept-5-en-2-yl-α-phenyl-1-piperidinepropanol]	200	--					
OC(CCN1CCCC1)(c1ccccc1)C1CCCCC1 (stereo not drawn) [Procyclidine, α-cyclohexyl-α-phenyl-1-pyrrolidinepropanol]		--	~80	10	3	20	minimal side effects
OC(CCN1CCCCC1)(c1ccccc1)C1CCCCC1 (stereo not drawn) [Trihexyphenidyl, α-cyclohexyl-α-phenyl-1-piperidinepropanol]	125	--					
